Laboratory results taken from ChEMBL document CHEMBL1126548, “Methoxylation of cocaine reduces binding affinity and produces compounds of differential binding and dopamine uptake inhibitory activity: discovery of a weak cocaine "antagonist"” (J Med Chem, 1993).
pIC50, pKi: −log10 of the molar value.

Experiments:
Rattus norvegicus [1] = species on record: Rattus norvegicus; assay: Compound tested for inhibitory activity against [3H]dopamine uptake in synaptosomes from rat caudate nucleus; parameters: species or system Brain
Rattus norvegicus [2] = species on record: Rattus norvegicus; assay: Binding affinity against [3H]mazindol
Rattus norvegicus [3] = species on record: Rattus norvegicus; assay: Effect on cocaine inhibition of [3H]dopamine uptake at 50 uM
Rattus norvegicus [4] = species on record: Rattus norvegicus; assay: Effect on cocaine inhibition of [3H]dopamine uptake at 200 uM
Rattus norvegicus [5] = species on record: Rattus norvegicus; assay: Effect on cocaine inhibition of [3H]-dopamine uptake at 500 uM
Rattus norvegicus [6] = species on record: Rattus norvegicus; assay: Effect on cocaine inhibition of [3H]dopamine uptake

SMILES | pKi (Rattus norvegicus [1]) | pKi (Rattus norvegicus [2]) | pIC50 (Rattus norvegicus [3]) | pIC50 (Rattus norvegicus [4]) | pIC50 (Rattus norvegicus [5]) | pIC50 (Rattus norvegicus [6])
COC(=O)[C@@H]1C2C[C@H](OC)[C@H](C[C@@H]1OC(=O)c1ccccc1)N2C (mixture of isomers) | 4.17 | 4.01 |  |  |  | 
COC(=O)[C@@H]1C2[C@H](OC)C[C@H](C[C@@H]1OC(=O)c1ccccc1)N2C (mixture of isomers) | 5.21 | 5.38 |  |  |  | 
COC(=O)[C@H]1C2[C@@H](OC)C[C@H](C[C@@H]1OC(=O)c1ccccc1)N2C (mixture of isomers) | 3.70 | 4.27 | 6.30 | 6.03 |  | 
COC(=O)[C@H]1C2[C@H](OC)C[C@H](C[C@@H]1OC(=O)c1ccccc1)N2C (mixture of isomers) | 3.96 | 4.35 |  |  |  | 
COC(=O)[C@H]1C2C[C@H](OC)[C@H](C[C@@H]1OC(=O)c1ccccc1)N2C (mixture of isomers) | 3.29 | 3.72 |  |  | 5.99 | 
COC(=O)[C@H]1[C@@H](OC(=O)c2ccccc2)C[C@@H]2CC[C@H]1N2C [COCAINE] | 6.49 | 6.55 |  |  |  | 6.47
COC(=O)[C@H]1C2CCC(C[C@@H]1OC(=O)c1ccccc1)N2 (stereo partly drawn) [PSEUDOCOCAINE] | 4.86 | 4.98 |  |  |  | 
